Assay results as given in patent US5364776A, “Method of hydroxylating 3-[3-(5-ethyl-2-methoxy-6-methylpyridyl)methyl]amino-5-ethyl-6-methyl-2( 1H)-pyridinone with liver slices” (Merck & Co., Inc., priority 1992, dated 1994).

Key:
[1] = In vitro metabolism of compound II with rat liver slices; type: in vitro ADME; conditions: 157.7 μM, four hours, 37° C., pH 7.4, HPLC photodiode array-UV
Description: Compound II (157.7 μM) was incubated with rat liver slices (10.17 g wet weight, 250-400 μ thick, ~1.2 cm wide) in 100 ml of Williams' Medium E at pH 7.4 and at 37° C. under an atmosphere of 95% oxygen and 5% carbon dioxide. After four hours the incubation mixture was extracted with ethyl acetate. The extract was evaporated to dryness and the residue reconstituted in methanol. The reconstitute was subjected to preparative HPLC on a reverse-phase column with an on-line UV-diode array detector. Three major metabolites--Ia, Ib and Ic--were isolated for characterization by NMR spectroscopy and mass spectrometry.
The three major products were identified by proton NMR (500 MHz; see Table below) and mass spectrometry as resulting from α-hydroxylation of the ethyl group on the pyridinone (HPLC Peak designating compound Ia), and β- and α-hydroxylation of the ethyl group on the pyridine (designated compounds Ic and Ib, respectively). [drawing 14]

[2] = biological target: T1, recombinant HIV reverse transcriptase (HIV RTR) (Human immunodeficiency virus type 1 group M subtype B, UniProt P04585); assay: Reverse transcriptase assay: incorporation of tritiated deoxyguanosine monophosphate into acid-precipitable cDNA by recombinant HIV reverse transcriptase; type: biochemical; conditions: poly r(C).oligo d(G)12-18 template, [3H]dGTP, pH 8.2 buffer, 37° C., 45 minutes
T1 construct: recombinant HIV reverse transcriptase (HIV RTR)
Description: The assay measures the incorporation of tritiated deoxyguanosine monophosphate by recombinant HIV reverse transcriptase (HIV RTR) (or other RT) into acid-precipitable cDNA at the Km values of dGTP and poly r(C).cndot.oligo d(G)12-18.
Thirty uL of a reaction mixture containing equal volumes of: 500 mM Tris.cndot.HCl (pH 8.2), 300 mM MgCl2, 1200 mM KCl, 10 mM DTT, 400 μg/mL poly r(c).cndot.oligo d(G) [prepared by dissolving 1.5 mg (25 U) poly r(C).cndot.oligo d(G) in 1.5 ml sterile distilled H2 O and diluting to 400 μg/ml], 0.1 μCi/μl [^3 H]dGTP, 160 μM dGTP, was added to 10 μl sterile distilled H2 O, and 2.5 μl of potential inhibitor. An aliquot of 10 μL of 5 nM purified HIV RTR was added to initiate the reaction. The mixture was incubated at 37° C. for 45 minutes.
After incubation is complete, the tubes were cooled in ice for 5 minutes. Ice-cold 13% TCA containing 10 mM NaPPi (200 μl) are added and the mixture incubated on ice for 30 minutes. The precipitated cDNA is removed by filtration using presoaked glass filters [TCA, NaPPi ]. The precipitate is then washed with 1N HCl, 10 mM NaPPi.
The filter discs are then counted in a scintillation counter.
Under these conditions [dGTP] and poly r(C).cndot.oligo d(G)12-18 each are approximately equal to the appropriate Km value. Approximately 5-6,000 cpm of [^3 H] GMP are incorporated into acid-precipitable material. The RT reaction is concentration- and time-dependent. […] The calculated IC50 values for the compounds of this invention are as follows: […]

| Structure (SMILES) | number of major products (metabolites) formed [1] | number of minor products formed [1] | IC50 [2] [nM] |
| --- | --- | --- | --- |
| CCc1cc(NCc2cc(CC)c(C)nc2OC)c(O)nc1C [Compound II, 3-[3-(5-ethyl-2-methoxy-6-methylpyridyl)methyl]amino-5-ethyl-6-methyl-2(1H)-pyridinone] | three | at least 5 | 29 |
| CCc1cc(CNc2cc(C(C)O)c(C)[nH]c2=O)c(OC)nc1C (stereo not drawn) [Ia, 3-[3-(5-ethyl-2-methoxy-6-methylpyridyl)methyl]amino-5-(1-hydroxy)ethyl-6-m ethyl-2(1H )-pyridinone] | – | – | 195 |
| CCc1cc(NCc2cc(C(C)O)c(C)nc2OC)c(=O)[nH]c1C (stereo not drawn) [Ib, 3-[3-(5-(1-hydroxy)ethyl-2-methoxy-6-methylpyridyl)methyl]amino-5-ethyl-6-m ethyl-2(1H)-pyridinone] | – | – | 390 |
| CCc1cc(NCc2cc(CCO)c(C)nc2OC)c(=O)[nH]c1C [Ic, 3-[3-(5-(2-hydroxy)ethyl-2-methoxy-6-methylpyridyl)-methyl]amino-5-ethyl-6-methyl-2(1H)-pyridinone] | – | – | 250 |
